Results from patent US8187822B2, “Methods to identify modulators” (Givaudan S.A., priority 2007, dated 2012).
Entries after “also recorded” stand apart in the source; their conditions may differ. Where two headings read alike, the source gives them in different places.

Tests used:
TAS2R44 = target: T1, TAS2R44 (Homo sapiens, UniProt P59538, L162M); experiment: Fluo-4 calcium assay, HEK293T cells expressing Gα16-gustducin44 and TAS2R44; assay type: cell-based; details: for TAS2R44 ΔF/F0: 0.02% DMSO; for Sucralose ΔF/F0 / Sucralose + test cpd A ΔF/F0: TAS2R44 expressing cells; for Sucralose + test cpd A ΔF/F0: 25 μM test cpd A
T1 construct: RSS tag (first 45 amino acids of rat somatostatin receptor subtype 3, plus EcoRI site) (N); expressed in transfected cells
T1 sequence (P59538 with tags, fused parts or gaps L162M): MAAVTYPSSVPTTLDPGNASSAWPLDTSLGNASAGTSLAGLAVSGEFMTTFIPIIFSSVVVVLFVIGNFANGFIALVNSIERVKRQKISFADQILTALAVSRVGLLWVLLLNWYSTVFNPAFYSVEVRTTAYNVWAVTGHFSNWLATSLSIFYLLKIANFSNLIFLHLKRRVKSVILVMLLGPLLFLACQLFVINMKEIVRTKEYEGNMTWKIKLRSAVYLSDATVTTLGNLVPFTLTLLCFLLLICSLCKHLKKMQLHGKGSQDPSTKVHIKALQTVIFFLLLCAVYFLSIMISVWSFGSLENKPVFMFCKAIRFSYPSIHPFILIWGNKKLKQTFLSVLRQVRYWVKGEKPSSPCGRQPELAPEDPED
Protocol: Cell lines that stably expresses a SABR (TAS2R44, TAS2R1, TAS2R10) was generated by transfecting pcDNA3.1Zeo-SABR into HEK293T/Gα16-gustducin 44 cells (both formed as described in example 1). The host cell line HEK-293T is commercially available from the American Tissue Culture Collection (ATCC), ATCC®# CRL-11268.
The expression of TAS2R44 was evaluated by testing for the presence of a functional response to the known TAS2R44 agonist saccharin (as described in WO 2004/029087) in addition to sucralose, which was determined via automated calcium imaging on the FLIPR-TETRA™ (Molecular Devices, Sunnyvale, Calif., US) as described in example 3. One clone was selected resulting in the HEK293T/Gα16-gustducin 44/TAS2R44 cell line.
Fluo-4AM (Invitrogen, Carlsbad, Calif., US) is a fluorescent indicator of intracellular calcium dynamics (change in concentration) and allows monitoring changes in the calcium concentration, particularly an increase in response to receptor activation occurring after agonist exposure.
(§1) At day 0, the HEK293T cell line expressing Gα16-gustducin44 and a TAS2R bitter taste receptor formed as described in examples 2b or 2c was seeded in antibiotic-free growth medium (standard DMEM with 10% (v/v) heat-inactivated fetal bovine serum, 2 mM L-glutamine[…]) into black wall/clear bottom 96-well plates, coated with poly(ethylenimine) (0.005% v/v) at a concentration of 15,000 cells per well and incubated for 48 hours in humidified atmosphere (37° C., 5% CO2).
(§2) At the time of the assay, the growth medium was discarded and the cells were in humidified atmosphere (37° C., 5% CO2) for 1 hour with 50 μl of loading buffer consisting of 1.5 μM Fluo-4 AM and […] probenicid (Sigma-Aldrich, St. Louis, Mo., US) in DMEM.
(§3) Afterwards, the 96-well plate was washed 5 times with 100 μl of assay buffer (130 mM NaCl, 5 mM KCl, 10 mM HEPES, 2 mM CaCl2, and 5 mM dextrose, pH 7.4) per well, using an automated plate washer (BioTek). The plate was further incubated for 30 minutes at room temperature in the dark to allow for complete de-esterification of the Fluo-4. Afterwards the plate was washed 5 times with 100 μl of assay buffer per well, and reconstituted with 100 μl of assay buffer per well.
(§4) For assay reading, the plate was placed in a Fluorometric Imaging Plate Reader (FLIPR) (FLIPR-TETRA™, Molecular Devices, Sunnyvale, Calif., US), and receptor activation was initiated by addition of 100 μl of a twofold concentrated agonist stock solution (to give the desired agonist end concentration when added to the 100 microliter assay buffer volume), which was prepared in assay buffer.
(§5) Fluorescence was continuously monitored for 20 seconds to give a signal baseline (averaged to give F0) prior to agonist addition and for 120 seconds after agonist addition. The change in signal divided by F0 gives ΔF/F0 indicated in the table, with ΔF being the maximum signal occurring within the 120 seconds minus the minimum signal (occurring within the 120 seconds after agonist addition.
All data was collected from at least two independent experiments each carried out in triplicate.
A concentration-response analysis was performed and EC50 values were calculated by nonlinear regression using the function f(x)=(a−d)/(1+(x/C)^nh)+d; with a=minimum signal, d=maximum signal, nh=hill coefficient, C=EC50, and x=agonist concentration. EC50 is the molar concentration of an agonist which produces 50% of the maximum possible effective response for that agonist.
The obtained calcium signals were corrected for the response of cells expressing only the G Protein α subunit (Gα16-gustducin44) and normalized to the fluorescence of cells prior to the stimulus using ΔF/F0 (Fmax−Fmin/F0). […]

[1] = tested on: cells expressing only Gα16gustducin44 but no TAS2 receptor; experiment: Fluo-4 calcium assay, negative control cells without bitter receptor; assay type: cell-based; details: for Neg. Control ΔF/F0: 0.02% DMSO
Protocol: HEK293T/Gα16-gustducin 44 cells were used; they are formed as described in WO 2004/055048. The host cell line HEK-293T is commercially available from the American Tissue Culture Collection (ATCC), ATCC®# CRL-11268
as §1, §2, §3, §4, §5
The obtained calcium signals were corrected for the response of cells expressing only the G Protein α subunit (Gα16-gustducin44) and normalized to the fluorescence of cells prior to the stimulus using ΔF/F0 (Fmax−Fmin/F0).
To confirm that the cell line formed in example 2c stably expresses the bitter taste receptor TAS2R44, a concentration-response curve for saccharin, a known agonist of TAS2R44, was generated. […] The standard deviation (+/−STD) is also indicated.
As a negative control to determine unspecific signals, each of the applied concentrations of sucralose was applied to cells expressing only Gα16gustducin44.
As a negative control, each agonist and each agonist with the antagonist/test compound (test cpd A) is applied to cells expressing only Gal 6gustducin44 but no TAS2 receptor (see results in table 7 herein below).

OC[C@H]1O[C@H](O[C@]2(CCl)O[C@H](CCl)[C@@H](O)[C@@H]2O)[C@H](O)[C@@H](O)[C@H]1Cl [Sucralose, sucralose]
EC50 (TAS2R44; agonist alone, stable TAS2R44 cell line (Examples 4, 5), read-out: calculated EC50 value): 16.7 ± 1.01 mM | EC50 (TAS2R44; agonist sucralose alone, TAS2R44 (Example 9), read-out: EC50 Agonist): 36.3 ± 5.7 mM | agonist activity at TAS2R44 (calcium signaling), in words (TAS2R44; cells stably expressing human TAS2R44): significant increase in calcium signaling | TAS2R44 ΔF/F0 (TAS2R44; sucralose 0.3906 mM): 0.023 | TAS2R44 ΔF/F0 (TAS2R44; sucralose 0.7813 mM): 0.025 | TAS2R44 ΔF/F0 (TAS2R44; sucralose 1.5625 mM): 0.026 | TAS2R44 ΔF/F0 (TAS2R44; sucralose 3.1250 mM): 0.043 | TAS2R44 ΔF/F0 (TAS2R44; sucralose 6.2500 mM): 0.059 | TAS2R44 ΔF/F0 (TAS2R44; sucralose 12.5000 mM): 0.109 | TAS2R44 ΔF/F0 (TAS2R44; sucralose 25.0000 mM): 0.197 | TAS2R44 ΔF/F0 (TAS2R44; sucralose 50.0000 mM): 0.256 | TAS2R44 ΔF/F0 (TAS2R44; sucralose 100.0000 mM): 0.260 | Sucralose ΔF/F0 (TAS2R44; sucralose alone 0.3906 mM (0.02% DMSO control of Example 9)): 0.046 | Sucralose ΔF/F0 (TAS2R44; sucralose alone 0.7813 mM (0.02% DMSO control of Example 9)): 0.038 | Sucralose ΔF/F0 (TAS2R44; sucralose alone 1.5625 mM (0.02% DMSO control of Example 9)): 0.042 | Sucralose ΔF/F0 (TAS2R44; sucralose alone 3.1250 mM (0.02% DMSO control of Example 9)): 0.030 | Sucralose ΔF/F0 (TAS2R44; sucralose alone 6.2500 mM (0.02% DMSO control of Example 9)): 0.027 | Sucralose ΔF/F0 (TAS2R44; sucralose alone 12.5000 mM (0.02% DMSO control of Example 9)): 0.051 | Sucralose ΔF/F0 (TAS2R44; sucralose alone 25.0000 mM (0.02% DMSO control of Example 9)): 0.110 | Sucralose ΔF/F0 (TAS2R44; sucralose alone 50.0000 mM (0.02% DMSO control of Example 9)): 0.192 | Sucralose ΔF/F0 (TAS2R44; sucralose alone 100.0000 mM (0.02% DMSO control of Example 9)): 0.352 | signal in negative control, in words ([1]; host cells expressing only Gα16-gustducin44): No significant change | Neg. Control ΔF/F0 ([1]; sucralose 0.3906 mM): 0.014 | Neg. Control ΔF/F0 ([1]; sucralose 0.7813 mM): 0.014 | Neg. Control ΔF/F0 ([1]; sucralose 1.5625 mM): 0.017 | Neg. Control ΔF/F0 ([1]; sucralose 3.1250 mM): 0.012 | Neg. Control ΔF/F0 ([1]; sucralose 6.2500 mM): 0.017 | Neg. Control ΔF/F0 ([1]; sucralose 12.5000 mM): 0.016 | Neg. Control ΔF/F0 ([1]; sucralose 25.0000 mM): 0.016 | Neg. Control ΔF/F0 ([1]; sucralose 50.0000 mM): 0.018 | Neg. Control ΔF/F0 ([1]; sucralose 100.0000 mM): 0.021 | Sucralose ΔF/F0 ([1]; sucralose alone 100.0000 mM, cells without bitter receptor (Example 9)): −0.179

CC1=CCC(C/C=C/C(=O)O)C1(C)C (stereo not shown) [test cpd A, (E)-4-(2,2,3-trimethylcyclopent-3-enyl)but-2-enoic acid]
Sucralose + test cpd A ΔF/F0 (TAS2R44; sucralose 0.3906 mM): 0.011 | Sucralose + test cpd A ΔF/F0 (TAS2R44; sucralose 0.7813 mM): 0.010 | Sucralose + test cpd A ΔF/F0 (TAS2R44; sucralose 1.5625 mM): 0.016 | Sucralose + test cpd A ΔF/F0 (TAS2R44; sucralose 3.1250 mM): 0.005 | Sucralose + test cpd A ΔF/F0 (TAS2R44; sucralose 6.2500 mM): 0.000 | Sucralose + test cpd A ΔF/F0 (TAS2R44; sucralose 12.5000 mM): −0.015 | Sucralose + test cpd A ΔF/F0 (TAS2R44; sucralose 25.0000 mM): −0.035 | Sucralose + test cpd A ΔF/F0 (TAS2R44; sucralose 50.0000 mM): −0.025 | Sucralose + test cpd A ΔF/F0 (TAS2R44; sucralose 100.0000 mM): 0.107 | effect on the response of TAS2R44 to sucralose, in words (TAS2R44; test compound at 25 μM): inhibited; also recorded: inhibit the response of a SABTR to sucralose | Sucralose + test cpd A ΔF/F0 ([1]; 25 μM test cpd A, sucralose 100.0000 mM, cells without bitter receptor): −0.175
